Measurements reported in article PMC5223195, “Novel long-chain compounds with both immunomodulatory and MenA inhibitory activities against Staphylococcus aureus and its biofilm” (Scientific Reports, 2017).
Values after ≈ are worked out from the molar mass of the structure shown. “Also recorded” adds a separate entry of the source. Read-outs that look alike come from different tables or passages of the source.

Legend:
[1] = test system: MRSA USA800; assay: MIC against MRSA USA800; format: cell-based, Staphylococcus aureus; details: TSB, 37 °C, 18–20 hours; for MIC: Staphylococcus aureus, read-out: MIC, Staphylococcus aureus isolate USA800
Protocol: (§1) 96-well plates were seeded with 5 × 10^5 CFU/mL in a volume of 100 μL of tryptic soy broth (TSB) per well for Staphylococcus aureus assays. Compounds were dissolved in DMSO and serially diluted as 1:2 dilutions to give the final concentration ranging from 0.25 to 128 μg/mL per well. […] Plates were incubated at 37 °C for 18–20 hours and MIC was determined by reading OD625. For M.avium and M.abscessus, 7H9 broth media was used for determination of MICs. The final concentration was 5 × 10^5 CFU/mL in each well. The plate was incubated at 37 °C for 7–8 days and MICs were determined using a Tecan microplate reader (OD625) and resazurin reduction assay.

[2] = test system: Mycobacterium abscessus; assay: MIC against Mycobacterium abscessus; format: cell-based; details: Mycobacteroides abscessus, 7H9 broth, 7–8 days
Protocol: as §1

[3] = test system: MRSA USA 200; assay: Menaquinone (MK-4) rescue, resazurin reduction assay, USA 200; format: cell-based; details: Staphylococcus aureus, read-out: MIC in the presence of MK-4
Protocol: Resazurin reduction assay was performed in 96-well plate. MRSA was cultured in TSB until OD625 reached 0.4~0.5 and diluted and plated in 96-well plate. […] The plate was incubated overnight at 37 °C followed by 20 μL of resazurin (0.15 mg/mL) was added to each well. The plate was incubated for 2–4 h and fluorescence was measured at 560 nm excitation/590 nm emission.

[4] = test system: MRSA USA100; assay: MIC against MRSA USA100; format: cell-based, Staphylococcus aureus; details: TSB, 37 °C, 18–20 hours; for MIC: Staphylococcus aureus, read-out: MIC, Staphylococcus aureus isolate USA100
Protocol: as §1

[5] = test system: Methicillin susceptible Staphylococcus aureus; assay: MIC against MSSA; format: cell-based; details: for MIC: MSSA
Protocol: as §1

[6] = test system: MRSA USA700; assay: MIC against MRSA USA700; format: cell-based, Staphylococcus aureus; details: TSB, 37 °C, 18–20 hours; for MIC: Staphylococcus aureus, read-out: MIC, Staphylococcus aureus isolate USA700
Protocol: as §1

[7] = test system: MRSA USA500; assay: MIC against MRSA USA500; format: cell-based, Staphylococcus aureus; details: TSB, 37 °C, 18–20 hours; for MIC: Staphylococcus aureus, read-out: MIC, Staphylococcus aureus isolate USA500
Protocol: as §1

[8] = test system: Mycobacterium avium; assay: MIC against Mycobacterium avium; format: cell-based; details: 7H9 broth, 7–8 days
Protocol: as §1

[9] = test system: MRSA USA300; assay: MIC against MRSA USA300; format: cell-based, Staphylococcus aureus; details: TSB, 37 °C, 18–20 hours; for MIC: Staphylococcus aureus, read-out: MIC, Staphylococcus aureus isolate USA300
Protocol: as §1

[10] = test system: MRSA USA400; assay: MIC against MRSA USA400; format: cell-based, Staphylococcus aureus; details: TSB, 37 °C, 18–20 hours; for MIC: Staphylococcus aureus, read-out: MIC, Staphylococcus aureus isolate USA400
Protocol: as §1

[11] = test system: Pseudomonas aeruginosa; assay: MIC against Pseudomonas aeruginosa; format: cell-based; details: for MIC: read-out: MIC, PA
[12] = test system: Enterococcus faecalis; assay: MIC against Enterococcus faecalis; format: cell-based; details: for MIC: read-out: MIC, EF
[13] = test system: MRSA USA200; assay: MIC against MRSA USA200; format: cell-based, Staphylococcus aureus; details: TSB, 37 °C, 18–20 hours; for MIC: Staphylococcus aureus, read-out: MIC, Staphylococcus aureus isolate USA200
Protocol: as §1

[14] = test system: Gram-positive bacteria; assay: MIC against Gram-positive bacteria (summary); format: cell-based; details: range over all tested Gram-positive bacteria
Protocol: as §1

[15] = test system: IL-1β; assay: IL-1β release from THP-1 macrophages; format: cell-based, human; details: concentration equal to MIC, 24 h, 37 °C
Protocol: (§2) THP-1 cells were differentiated into macrophages by treatment with PMA (7.5 ng/mL). Levels of the human cytokines (GM-CSF, IFN-γ, IL-1β, IL-2, IL-4, IL-5, IL-6, IL-8, IL-10, TNF-α) released from THP-1 macrophages were determined using a multiplex kit from Life Technologies according to the manufacturer’s instructions. In brief, the 96 well filter plate was pre-wetted, and then 25 μL of the diluted bead suspension was added to each well and washed twice. 100 μL of samples and standards were added to each well. The plate was incubated at room temperature for 2 h on a shaker. Following washing, biotinylated detection antibody was added and incubated for 1 h. After washing, streptavidin-RPE was added to each well and incubated for 0.5 h. The plate was again washed, resuspended in 100 μL of the washing buffer, and read on the Luminex xMAP™ system (Bio-Rad, AtheNA multi-Lyte™, USA). All samples were run in triplicate and standards were run in duplicate.

[16] = test system: TNF-α; assay: TNF-α release from THP-1 macrophages; format: cell-based, human; details: concentration equal to MIC, 24 h, 37 °C
Protocol: as §2

[17] = test system: MRSA (USA 700); assay: Activity against extracellular MRSA in the presence of human MDMs; format: cell-based, Staphylococcus aureus; details: extracellular MRSA USA700, MIC and MIC/4, 24 h
Protocol: Human monocyte-derived macrophages (MDM) were cultured at a concentration of 1 × 10^6 cells/mL/well in a 24 well plate. MRSA (USA 700) was cultured in TSB (10 mL) until OD625 reached 0.4~0.5 and then centrifuged at 14,000 rpm for 10 min. The pellets were resuspended in 10 mL of DMEM supplemented with 10% human serum (no antibiotics). The bacteria medium was diluted with DMEM containing an inhibitor to obtain 1 × 10^6 CFU/mL and added to human MDMs (MOI = 1) in a 24-well plate. After 24 hour infection at 37 °C, the supernatants were serially diluted for CFU determination (TSA plates).

[18] = test system: IL-6; assay: IL-6 release from THP-1 macrophages; format: cell-based, human; details: concentration equal to MIC, 24 h, 37 °C
Protocol: as §2

[19] = test system: MRSA strains; assay: MIC against MRSA strains (summary); format: cell-based, Staphylococcus aureus; details: range over MRSA strains
Protocol: as §1

[20] = test system: MRSA (USA200); assay: Colony morphology / small colony variant formation on TSA; format: cell-based, Staphylococcus aureus; details: USA200 on TSA, 37 °C, up to 96 h (3a 4–16 μg/mL), 72 h (7c, rifampin)
Protocol: MRSA was streaked and then incubated on tryptic soy agar (TSA) containing 0, 2, 4, 8 or 16 μg/mL of inhibitor 3a or 4 μg/mL of 7C or 0.025 μg/mL of rifampin at 37 °C for 96 h. MK-4 (100 μg/mL) was supplemented in TSA containing 8 μg/mL of 3a for the rescue experiment.

[21] = target: MenA; details: previously reported; cited from earlier work

| SMILES | MIC [1] [µg/mL] | MIC [2] [µg/mL] | MIC [4] [µg/mL] | MIC [5] [µg/mL] | MIC [6] [µg/mL] | MIC [7] [µg/mL] | MIC [8] [µg/mL] | MIC [9] [µg/mL] | MIC [10] [µg/mL] | MIC [11] [µg/mL] | MIC [12] [µg/mL] | MIC [13] [µg/mL] | MIC, Staphylococcus aureus isolate USA200 [13] [µg/mL] | MIC values against all Gram-positive bacteria (range) [14] [µg/mL] | IL-1β released from THP-1 macrophages [15] | TNF-α released from THP-1 macrophages [16] | increase of antibacterial activity compared to activities with MDMs [17] | increase of antibacterial activity compared to activities without MDMs [17] | IL-6 released from THP-1 macrophages [18] | M.tb IC50 (inhibition of both M.tb and MenA enzyme activity) [21] [µg/mL] | further results |
| --- | --- | --- | --- | --- | --- | --- | --- | --- | --- | --- | --- | --- | --- | --- | --- | --- | --- | --- | --- | --- | --- |
| COc1ccc2ccc(OCCCCCCCCNCCc3ccc(Br)cc3)cc2c1 [3c] | 6 (≈ 12.4 µM) | 12 (≈ 24.8 µM) | 6 (≈ 12.4 µM) | 4 (≈ 8.26 µM) | 4 (≈ 8.26 µM) | 6 (≈ 12.4 µM) | 4 (≈ 8.26 µM) | 4 (≈ 8.26 µM) | 4 (≈ 8.26 µM) | > 64 | 1 (≈ 2.06 µM) | 2 (≈ 4.13 µM) | 2 (≈ 4.13 µM) | 0.5 to 16 |  |  |  |  |  |  | MIC ([3]; USA 200, 0.05 mg/mL MK-4): 16 µg/mL; MIC ([3]; USA 200, 0.5 mg/mL MK-4): 64 µg/mL |
| Brc1cc2ccc(OCCCCCCCCN3CCCCC3)cc2cc1OCc1ccccc1 [6b] |  |  |  |  |  |  |  |  |  |  |  |  | 4 (≈ 7.63 µM) |  | stimulated the release | decreased | 1.5 – 3 fold | 6–12 fold | decreased; also recorded: significantly reduced |  | MIC, Staphylococcus aureus isolate USA800 [1]: 12 µg/mL (≈ 22.9 µM); MIC, Staphylococcus aureus isolate USA100 [4]: 6 µg/mL (≈ 11.4 µM); MIC, MSSA [5]: 4 µg/mL (≈ 7.63 µM); MIC, Staphylococcus aureus isolate USA700 [6]: 16 µg/mL (≈ 30.5 µM); MIC, Staphylococcus aureus isolate USA500 [7]: 12 µg/mL (≈ 22.9 µM); MIC, MA [8]: 2 µg/mL (≈ 3.81 µM); MIC, Staphylococcus aureus isolate USA300 [9]: 6 µg/mL (≈ 11.4 µM); MIC, Staphylococcus aureus isolate USA400 [10]: 6 µg/mL (≈ 11.4 µM); MIC, PA [11]: >128 µg/mL; MIC, EF [12]: 2 µg/mL (≈ 3.81 µM) |
| Fc1ccc(CCNCCCOc2ccc3ccc(OCCCNCCc4ccc(F)cc4)cc3c2)cc1 [7c] | 4 (≈ 7.71 µM) | 6 (≈ 11.6 µM) | 3 (≈ 5.78 µM) | 2 (≈ 3.86 µM) | 2 (≈ 3.86 µM) | 8 (≈ 15.4 µM) | 3 (≈ 5.78 µM) | 3 (≈ 5.78 µM) | 1 (≈ 1.93 µM) | > 128 | 1 (≈ 1.93 µM) | 2 (≈ 3.86 µM) |  | 0.5 to 16 | stimulated the release | decreased | 1.5 – 3 fold | 6–12 fold | decreased; also recorded: significantly reduced |  | MICs against MRSA strains (range) [19]: 1 to 8 µg/mL; induction of small colony variants (SCV) [20]: did not induce SCV |
| C=CCN(C)CCCCCCCCOc1ccc2ccc(OC)cc2c1 [compound 1] |  |  |  | 32 (≈ 90 µM) | 16 (≈ 45 µM) |  |  | 16 (≈ 45 µM) | 16 (≈ 45 µM) | 128 (≈ 360 µM) | 8 (≈ 22.5 µM) |  |  |  |  |  |  |  |  | 6 |  |
| COc1ccc2ccc(OCCCCCCCCN3CCCCC3)cc2c1 [compound 2] |  |  |  | 16 (≈ 43.3 µM) | 16 (≈ 43.3 µM) |  |  | 16 (≈ 43.3 µM) | 16 (≈ 43.3 µM) | > 64 | 16 (≈ 43.3 µM) |  |  |  |  |  |  |  |  | 5 |  |
